Drawing on ChEMBL document CHEMBL1130372, “Synthesis and evaluation of putative oxocarbenium intermediate mimic in the KDO8P synthase-catalyzed reaction as a tool for the design of potent inhibitors for lipopolysaccharide biosynthesis” (Bioorg Med Chem Lett, 1997), this text covers Ki for 1 compound.

For orientation: Ki means the equilibrium dissociation constant of an inhibitor or competing ligand from its target. A low value points to tighter binding.

The nature of this experiment: The inhibitory activity was evaluated against homogeneous KDO 8-P synthase from Escherichia coli by varying PEP at saturating concentrations of A5P (0.5 mM).

In the case of `O=C(O)CN(CC(O)C(O)C(O)[C@H](O)COP(=O)(O)O)CP(=O)(O)O` (stereo partly specified), the Ki was found to be 3.3 µM.
